This assay concerns HIV. Briefly: anti-HIV activity in cell culture. The conditions noted are these: Human immunodeficiency virus 1, in vitro. Type of assay: cell-based.

SMILES strings stand for the structures.

Compound `O=C(N[C@H]1CCC[C@@H]1O)/C(O)=C/C(=O)c1cc(Cc2ccc(F)cc2F)cn(Cc2ccccc2F)c1=O` [FIG. 1a] returned an EC50 of 25 nM.
With `O=C(NN1CCCC1=O)/C(O)=C/C(=O)c1cc(Cc2c(F)cccc2F)cn(Cc2ccccc2F)c1=O` [FIG. 1b] the figure was 10 nM.

As a reminder, the EC50 is the concentration at which the effect is half-maximal. A higher EC50 goes with lower potency in that assay.

Source of the values: patent US8703801B2, “Pyridinone hydroxycyclopentyl carboxamides: HIV integrase inhibitors with therapeutic applications” (University of Georgia Research Foundation, Inc., priority 2009, dated 2014).
